We go through 6 compounds from patent US20100056627A1, “PHARMACEUTICAL COMPOSITIONS OF ALKYL GALLATES” (priority 2006, published 2010).

Assay [1] has as its system gram-positive and gram-negative bacteria. Briefly: MIC (minimum growth inhibition concentration), 2-fold serial agar plate dilution on Mueller Hinton II Agar, with concomitant alkyl gallate and salt. The settings on record: n-heptyl, n-hexyl, n-pentyl, n-butyl, isobutyl or n-propyl gallate at a concentration equal to or less than MIC.
In assay [2] the test system is influenza virus. Briefly: Influenza virucidal activity of n-dodecyl gallate with n-hexyl gallate or n-butyl gallate (FIG. 3). The format is cell-based. The text has this: FIG. 3 is a graph showing reinforcement of the influenza virucidal activity of n-dodecyl gallate by n-hexyl gallate and n-butyl gallate. The abscissa axis indicates the concentrations of n-dodecyl gallate.
The open circle in FIG. 3 indicates an influenza virucidal effect of dodecyl gallate alone.

Assay [3] has as its system Pseudomonas aeruginosa POA1. Briefly: Antimicrobial action (MIC) of lauryl gallate with isoamyl gallate or propyl gallate in 3% NaCl. The conditions noted are these: for MIC: Pseudomonas aeruginosa, P. aoruginosa PAO1, MHA (3% NaCl). Format: cell-based.
Assay [4] concerns MRSA COL strain. Briefly: Time required for killing bacteria, octyl gallate and propyl gallate (FIG. 1). The format is cell-based, Staphylococcus aureus. The text has this:
FIG. 1 is a graph showing shortening of the time required for killing bacteria by the concomitant use of octyl gallate and propyl gallate against MRSA COL strain.

Assay [5] relates to influenza virus B/T/1/05. Briefly: Time course of virucidal activity at 37° C., infectivity by plaque assay in MDCK cells (FIGS. 6 to 12). The settings on record: influenza B/T/1/05, FIGS. 6 and 8. Format: cell-based. The procedure: The experiments in FIGS. 7 to 12 were carried out at 37° C. The infectivity of viruses was determined using MDCK cells by the plaque assay method.
This virucidal activity of octyl gallate was reinforced by propyl gallate also against influenza virus A/Aichi (H3N2) in the same manner as above.

The subject of assay [6] is Candida albicans ATCC 10231. Briefly: Time required for killing mold, octyl gallate and propyl gallate (FIG. 2). The format is cell-based. The conditions noted are these: Candida albicans ATCC 10231, FIG. 2. The text has this:
FIG. 2 is a graph showing shortening of the time required for killing mold by the concomitant use of octyl gallate and propyl gallate against Candida albicans ATCC 10231.

Assay [7] concerns influenza virus A/Aichi (H3N2). Briefly: Virucidal activity against influenza virus A/Aichi (H3N2) (Table 16). The conditions noted are these: Table 16, NaCitrate 0.90%.
Assay [8] concerns herpes virus (HSV-1). Kind of assay: Virucidal activity against HSV-1 (Tables 14, 15, FIG. 5). The format is cell-based.
Assay [9] relates to clinical isolate MRSA. Briefly: Oxacillin MIC against MRSA with concomitant octyl gallate and short-chain alkyl gallate (β-lactam sensitivity, ILSMR effect). The conditions noted are these: Staphylococcus aureus, MRSA, 24 h, Isoamyl G 25 μg/mL; Octyl G 1.5625 μg/mL. The format is cell-based, Staphylococcus aureus.

Converted amounts (≈) assume the structure as drawn.

Consider `CCCCCCCCCCCCOC(=O)c1cc(O)c(O)c(O)c1` [dodecyl gallate, n-dodecyl gallate], for which the “change of MIC value by addition of shorter-chain alkyl gallate” value in assay [1] was “decreased”. Also, the “virucidal effect of dodecyl gallate” value in assay [2] (addition of butyl gallate at a concentration without virucidal effect) was “reinforced markedly”. Besides, the “dodecyl gallate concentration at which no survivor was observed” value in assay [2] (coexistence of 100 μg/ml of hexyl gallate) amounted to 20 µg/mL. Also, the MIC in [3] (PAO1, 24 h, concomitant none, 24 h) was found to be 15.6 µg/mL (≈ 46.2 µM); in [3] (PAO1, 48 h, concomitant none, 48 h), 31.2 µg/mL (≈ 92.3 µM); in assay [3] (PAO1, 48 h, isoamyl gallate 50 μg/mL, 48 h) it was 3.91 µg/mL (≈ 11.5 µM); in assay [3] (PAO1, 48 h, isoamyl gallate 75 μg/mL, 48 h) it was 0.977 µg/mL (≈ 2.89 µM); in assay [3] (PAO1, 48 h, propyl gallate 75 μg/mL, 48 h), 0.488 µg/mL (≈ 1.44 µM). Besides, the “antimicrobial action of lauryl gallate” value in [3] (isoamyl gallate or propyl gallate in the presence of 3% NaCl (Table 6)) is reported as “reinforced”.
In the case of `CCCCCCCCCCCOC(=O)c1cc(O)c(O)c(O)c1` [n-undecyl gallate], the “change of MIC value by addition of shorter-chain alkyl gallate” value in [1] is given as “decreased”.
On the same count and under the same terms, to `CCCCCCCCCOC(=O)c1cc(O)c(O)c(O)c1` [n-nonyl gallate] belongs “decreased”; to `CCCCCCCCCCOC(=O)c1cc(O)c(O)c(O)c1` [n-decyl gallate], “decreased”.
As to `CCCOC(=O)c1cc(O)c(O)c(O)c1` [propyl gallate], the bactericidal activity alone result in [4] was “low”. The virucidal activity alone entry in assay [5] is given as “low”. Also, the fungicidal activity alone entry in assay [6] is on record as “low”. For the same compound, the No of plaques in assay [7] (octyl gallate 0, propyl gallate 300 mg/L, J1816 90 mg/L) was 52; in [7] (propyl gallate 100 mg/L, J1816 30 mg/L), 84; in [7] (propyl gallate 200 mg/L, J1816 60 mg/L) it was 87; in assay [7] (propyl gallate 300 mg/L, J1816 90 mg/L), 53; in assay [7] (propyl gallate 400 mg/L, J1816 120 mg/L) it was 47; in [7] (propyl gallate 500 mg/L, J1816 150 mg/L), 42. Also, the No of plaques was found to be 0 in assay [8] (Table 14, octyl gallate 0, propyl gallate 300 mg/L, J1816 90 mg/L, Na3citrate 0.90%); 0 in assay [8] (Table 14, propyl gallate 100 mg/L, J1816 30 mg/L, Na3citrate 0.90%); 0 in [8] (Table 14, propyl gallate 200 mg/L, J1816 60 mg/L, Na3citrate 0.90%); 0 in assay [8] (Table 14, propyl gallate 300 mg/L, J1816 90 mg/L, Na3citrate 0.90%); 0 in assay [8] (Table 14, propyl gallate 400 mg/L, J1816 120 mg/L, Na3citrate 0.90%); 0 in [8] (Table 14, propyl gallate 500 mg/L, J1816 150 mg/L, Na3citrate 0.90%). Further, the No of plaques in assay [8] (Table 15, octyl gallate 0, propyl gallate 300 mg/L, J1816 0, NaCitrate 0.90%) is recorded as 137; in [8] (Table 15, propyl gallate 100 mg/L, J1816 0, NaCitrate 0.90%), 192; in assay [8] (Table 15, propyl gallate 200 mg/L, J1816 0, NaCitrate 0.90%), 139; in [8] (Table 15, propyl gallate 300 mg/L, J1816 0, NaCitrate 0.90%) it was 162; in assay [8] (Table 15, propyl gallate 400 mg/L, J1816 0, NaCitrate 0.90%), 102; in assay [8] (Table 15, propyl gallate 500 mg/L, J1816 0, NaCitrate 0.90%) it was 130.
For the compound `Cc1onc(-c2ccccc2)c1C(=O)N[C@@H]1C(=O)N2[C@@H]1SC(C)(C)[C@@H]2C(=O)O` [oxacillin, reference compound], the MIC in [9] was 0.125 µg/mL.

As usually defined, the MIC is the smallest concentration in the dilution series that meets the test's criterion for growth inhibition.
